This is an account of results in patent US12304909B2, “Compounds and their use in therapy” (IMPERIAL COLLEGE INNOVATIONS LIMITED, priority 2018, dated 2025).

pEC50, pIC50: −log10 of the molar value.

Series [1] addresses T1, human NMT1 (HsNMT1) (Homo sapiens, UniProt P30419).
T1 sequence (P30419 1-496): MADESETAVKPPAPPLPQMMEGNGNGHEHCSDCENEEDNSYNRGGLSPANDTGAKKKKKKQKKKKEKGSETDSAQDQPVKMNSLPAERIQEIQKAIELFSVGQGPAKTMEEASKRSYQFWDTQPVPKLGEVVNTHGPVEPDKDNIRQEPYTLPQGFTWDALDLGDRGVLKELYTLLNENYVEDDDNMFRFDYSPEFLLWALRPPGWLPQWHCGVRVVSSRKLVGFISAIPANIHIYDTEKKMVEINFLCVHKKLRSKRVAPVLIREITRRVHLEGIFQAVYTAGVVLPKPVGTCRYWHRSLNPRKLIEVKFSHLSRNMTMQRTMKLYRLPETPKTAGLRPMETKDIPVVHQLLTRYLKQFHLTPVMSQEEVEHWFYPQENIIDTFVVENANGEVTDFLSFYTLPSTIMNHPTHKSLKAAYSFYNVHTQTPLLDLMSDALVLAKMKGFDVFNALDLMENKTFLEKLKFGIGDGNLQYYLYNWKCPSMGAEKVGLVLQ
In words: HsNMT1 IC50, fluorescence-based assay detecting CoA with CPM. It counts as biochemical. The procedure: The IC50 values for human NMT1 (HsNMT1) of four Example compounds of the invention described above (Examples 1-4) and six comparative examples (Comparative Examples 1, 2, 3, 4, 5 and 6) were measured using a sensitive fluorescence-based assay based on detection of CoA by 7-diethylamino-3-(4-maleimido-phenyl)-4-methylcoumarin, as described in Goncalves, V., et al., Analytical Biochemistry, 2012, 421, 342-344 and Goncalves, V., et al., J. Med. Chem, 2012, 55, 3578.

The nature of series [2]: Human liver microsomes half life. The format is in vitro ADME. The settings on record: pH 7.4, read-out: Human liver microsomes t ½. The procedure:
Example Compound 1 was tested for metabolic stability in an assay using human liver microsomes. Comparative Examples 2, 3, 4, 5 and 6 were also tested in the same assay. Compounds having good metabolic stability in the assay are expected to be especially useful as agents for preventing and/or treating cancer, by having a long half-life in human patients
Frozen human liver microsomes obtained from Corning, USA (cat #452117) were thawed and diluted with 100 mM of pH 7.4 phosphate buffer to give a 1 mg/ml solution. An NADPH regeneration system (NRS) was prepared as a solution containing 13 mM NADP, 33 mM glucose-6-phosphate, 33 mM MgCl2 and 4U/mL glucose-6-phosphate dehydrogenase in 100 mM of pH7.4 phosphate buffer. The test compound (4 mM) in DMSO was diluted with acetonitrile to provide a 100 μM sub-stock then further diluted with 100 mM of pH7.4 phosphate buffer to provide a 2 μM working solution. The liver microsome solution and NRS were incubated at 37° C. before use. To each well of the test plate was dispensed 60 μL of buffer, 50 μL of test compound solution and 10 μL of NRS. A reaction was initiated by addition of 40 μL of liver microsome solution. Wells were incubated for an appropriate time (0, 5, 10, 20, 30 and 60 min) then quenched with 300 μL of acetonitrile containing reference standards atenolol, propranolol, diclofenac, verapamil). All plates were centrifuged at 3500 rpm for 20 min at 15° C. to pellet the debris. 110 μL supernatant was diluted 110 μL water and quantitated using LC-MS/MS.
The results were used to calculate the % Remaining of the test compound at time point t=100×˜[(AUC at time point t)/(AUC at T=0)]. A linear regression curve was fitted to a plot of natural logarithm (In) of AUC against time. The T-half (min)=0.693/slope.
Background: Liver microsomes are a subcellular fraction often used to study metabolism.

Series [3] has as its system MRC5 cells. The experiment in a line: Metabolic activity assay (MTS assay), MRC5. It counts as cell-based, human. The note with it: Homo sapiens, MRC5, 72 h. The procedure:
Example NMT inhibitors of the present invention were tested for activity in an in vitro metabolic activity assay using the human cell line MRC5. Comparative Examples 1, 2, 3, 4, 5 and 6 were also tested in the same metabolic activity assay. Compounds having activity in inhibiting metabolic activity in the assay are expected to be useful as agents for preventing and/or treating cancer, by virtue of being inhibitors of human NMT1 and/or NMT2.
MRC5 cells (obtained from Dr David Mann's group, Imperial College; cell type: fibroblasts cells which derive from normal lung tissue) were grown in DMEM media (supplemented with 10% FBS) and were seeded in a 96-well plate, 24 h prior to treatment. Cell suspensions were prepared by adjusting the cell density to the appropriate concentration (as stated in the Table 1 below) and 50 μL of the cell suspension was transferred to wells B-G in columns 2-11 of a 96-well plate.
100 μL of growth media (DMEM media) containing 0.2% DMSO was added to wells B-G in columns 2 and 11 as positive controls, and 100 μl of growth media containing Puromycin (3 μg/mL; final concentration in the plate 2 μg/mL) was added to wells B-G in column 3 as a negative control. Seven concentrations of NMT inhibitor stock solution were prepared for each Example (Example 1 and 2) and each Comparative Example (Comparative Examples 1, 2, 3, 4, 5 and 6) tested (same final percentage of DMSO, dilution factor=3 starting from 15 μM or 150 μM). 100 μL of inhibitor stock solution was added to wells B-G in columns 4-10 of a 96-well plate (final concentration of Example compound or Comparative Example compound in the plate starting from 10 μM or 100 μM; total volume in each well was 150 μL). The plate was incubated at 37° C. with 5% CO2 level.
After 72 h, 20 μL MTS reagent (Promega, prepared according to the supplier protocol) was added to each well of the 96-well plate. The plate was incubated at 37° C. for 2 h and the absorbance per well was measured at 490 nm with an EnVision plate reader. The average absorbance value of the negative control (Puromycin-treated cells) was subtracted from each value and the metabolic activity was calculated as a percentage relative to the positive control (DMSO-treated cells). EC50 values were calculated using GraphPad.
Background: Formazan colour is commonly taken as a measure of viable cells.

Series [4] is described as follows: Mouse half life in vivo. The note with it: plasma; mouse oral half-life; male CD-1 mice, 10 mg/kg po; read-out: Rat or mouse t ½ (mouse) (converted). The procedure:
Example Compound 1, and Comparative Examples 2 and 3 were tested for metabolic stability in male Sprague-Dawley rats. Comparative Example 5 was tested for metabolic stability in male CD-1 mice. Compounds having good metabolic stability in rats or mice are expected to be especially useful as agents for preventing and/or treating cancer, by having a long half-life in human patients.
Same as rat protocol except that CD-1 mice were dosed at 5 mg/kg iv and 10 mg/kg po.

In the case of `Cc1nn(C)c(C)c1CCOc1cc(F)ccc1-c1ccc2c(c1)c(CN(C)C)nn2C` [Comparative Example 5, 1-(5-(4-fluoro-2-(2-(1,3,5-trimethyl-1H-pyrazol-4-yl)ethoxy)phenyl)-1-methyl-1H-indazol-3-yl)-N,N-dimethylmethanamine], the pIC50 in series [1] is 7.89. Further, the half-life at 0.625 µM in series [2] worked out at 7 min. In addition, the pEC50 in series [3] is 4.57. Further, the half-life in series [4] is 42 min.

The pIC50 is the negative decadic logarithm of the IC50, by convention in mol/L. Broadly, the pEC50 is −log10 of the EC50, conventionally taken in molar units. A lower pEC50 goes with a large EC50.
